Laboratory results taken from US20250304620A1, “ANTIMICROBIAL PEPTIDE AND APPLICATION THEREOF” (priority 2023, published 2025).
In brackets after ≈: the same amount, converted by molar mass. Marks after values point to notes of the source that are not given here. Non-standard residues stand in square brackets, D forms with d. Residues, ends and D or L forms follow the SMILES beside them. d2Nal = N[C@H](Cc1ccc2ccccc2c1)C(=O)O

What was measured:
[1] = tested on: Bacillus subtilis ATCC 6633; format: cell-based
Outline: (§1)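 Peptides were tested against clinical bacterial and fungal strains by CLSI microdilution using a serial twofold dilution series, and the MIC was taken as the value. Replicates: 5, run in parallel.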

[2] = tested on: Candida albicans ATCC MYA-2876; format: cell-based
Outline: as §1

[3] = tested on: Candida glabrata ATCC 15126; format: cell-based
Outline: as §1

Candida krusei ATCC 6258 = format: cell-based
Outline: as §1

Candida utilis ATCC 9950 = format: cell-based
Outline: as §1

[4] = tested on: Corynebacterium ATCC 7715; format: cell-based
Outline: as §1

[5] = tested on: Klebsiella pneumoniae ATCC 700603; format: cell-based
Outline: as §1

[6] = tested on: Pseudomonas aeruginosa ATCC 27853; format: cell-based
Outline: as §1

[7] = tested on: Salmonella typhimurium ATCC 14028; format: cell-based
Outline: as §1

[8] = tested on: Serratia marcescens ATCC 29021; format: cell-based
Outline: as §1

[9] = tested on: Staphylococcus aureus ATCC 25923; format: cell-based
Outline: as §1

[10] = tested on: Shigella flexneri ATCC 12022; assay: MIC against clinically common bacterial strain; format: cell-based
Outline: as §1

[11] = tested on: Methicillin-resistant Staphylococcus aureus (MRSA); format: cell-based; conditions: Methicillin-resistant
Outline: (§2)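 Read-out is the minimum inhibitory concentration, obtained by twofold serial dilution in microdilution format per CLSI guidance, with five parallel runs.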

[12] = tested on: carbapenem-resistant Escherichia coli (CREC); format: cell-based; conditions: carbapenem-resistant (CREC)
Outline: as §2

[13] = tested on: carbapenem-resistant Klebsiella pneumoniae (CRKP); format: cell-based; conditions: carbapenem-resistant (CRKP)
Outline: as §2

[14] = tested on: carbapenem-resistant Pseudomonas aeruginosa (CRPA); format: cell-based; conditions: carbapenem-resistant (CRPA)
Outline: as §2

[15] = tested on: vancomycin-resistant Enterococcus (VRE); format: cell-based
Outline: as §2

rabbit red blood cells = format: cell-based; conditions: red cells of rabbit, 1 h
[16] = tested on: Pseudomonas aeruginosa ATCC 27853; assay: Injectable formulations on mice infected with peritonitis; format: in vivo, ICR mice; conditions: twice a day for 3 days; for Number of mice that died on each day after infection: day 1 / Number of mice that died on each day after infection: day 2 / Number of mice that died on each day after infection: day 3 / Number of mice that died on each day after infection: day 4 / Number of mice that died on each day after infection: day 5 / Average survival times (Days): n = 10; for Average survival times (Days): observed for 14 d; for survival time of mice infected with Pseudomonas aeruginosa: tail vein, observed 14 d
Outline: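 Survival readout: deaths and survival time tracked for 14 d. Treatment was tail-vein injection by body weight, twice a day for 3 consecutive days, starting right after intraperitoneal challenge with 0.2 mL of 1×10^9 CFU/mL P. aeruginosa ATCC 27853 in male and female ICR mice.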

[17] = Serum stability assay (residual level by RP-HPLC); conditions: human

Structure (SMILES)	MIC Bacillus subtilis ATCC 6633 [1] [µg/mL]	MIC Candida albicans ATCC MYA-2876 [2] [µg/mL]	MIC Candida glabrata ATCC 15126 [3] [µg/mL]	MIC Candida krusei ATCC 6258 (Candida krusei ATCC 6258) [µg/mL]	MIC Candida utilis ATCC 9950 (Candida utilis ATCC 9950) [µg/mL]	MIC Corynebacterium ATCC 7715 [4] [µg/mL]	MIC Klebsiella pneumoniae ATCC 700603 [5] [µg/mL]	MIC Pseudomonas aeruginosa ATCC 27853 [6] [µg/mL]	MIC Salmonella typhimurium ATCC 14028 [7] [µg/mL]	MIC Serratia marcescens ATCC 29021 [8] [µg/mL]	MIC Staphylococcus aureus ATCC 25923 [9] [µg/mL]	MIC Shigella flexneri ATCC 12022 [10] [µg/mL]	MIC MRSA [11] [µg/mL]	MIC CREC [12] [µg/mL]	MIC CRKP [13] [µg/mL]	MIC CRPA [14] [µg/mL]	MIC VRE [15] [µg/mL]	MHC (minimum hemolytic concentration, lowest concentration causing 10% hemolysis) (rabbit red blood cells) [µg/mL]	Number of mice that died on each day after infection: day 1 ([16]; 1 mg/kg via tail vein) [Mouse]	Number of mice that died on each day after infection: day 2 ([16]; 1 mg/kg via tail vein) [Mouse]	further results
CC(=O)N[C@H](CCCNC(=N)N)C(=O)N[C@H](CCCCN)C(=O)N[C@@H](C(=O)N[C@@H](C(=O)N[C@H](Cc1ccc2ccccc2c1)C(=O)N[C@H](CCCNC(=N)N)C(=O)N[C@@H](C(=O)N[C@H](CCCCN)C(=O)N[C@H](Cc1ccc2ccccc2c1)C(=O)N[C@H](CCCNC(=N)N)C(=O)N[C@H](CCCCN)C(N)=O)C(C)C)C(C)C)C(C)C [LV-16] (Ac-[dR][dK][dV][dV][d2Nal][dR][dV][dK][d2Nal][dR][dK]-NH2)	4 (≈ 2.49 µM)	8 (≈ 4.99 µM)	16 (≈ 9.97 µM)	4 (≈ 2.49 µM)	8 (≈ 4.99 µM)	2 (≈ 1.25 µM)	2 (≈ 1.25 µM)	4 (≈ 2.49 µM)	2 (≈ 1.25 µM)	4 (≈ 2.49 µM)	1 (≈ 0.623 µM)	2 (≈ 1.25 µM)	4 (≈ 2.49 µM)	8 (≈ 4.99 µM)	2 (≈ 1.25 µM)	8 (≈ 4.99 µM)	2 (≈ 1.25 µM)	>1000	2	1	Number of mice that died on each day after infection: day 3 ([16]; 1 mg/kg via tail vein): 1 Mouse; Number of mice that died on each day after infection: day 4 ([16]; 1 mg/kg via tail vein): 1 Mouse; Number of mice that died on each day after infection: day 5 ([16]; 1 mg/kg via tail vein): 0 Mouse; Average survival times (Days) ([16]; 1 mg/kg via tail vein): 8.1** Days; remaining at 12 h, 0.91 mg/mL [17]: 98.4%
CC(=O)N[C@H](CCCCN)C(=O)N[C@H](CCCCN)C(=O)N[C@H](CC(C)C)C(=O)N[C@H](CC(C)C)C(=O)N[C@H](Cc1ccc2ccccc2c1)C(=O)N[C@H](CCCCN)C(=O)N[C@H](CC(C)C)C(=O)N[C@H](CCCCN)C(=O)N[C@H](Cc1ccc2ccccc2c1)C(=O)N[C@H](CCCCN)C(=O)N[C@H](CCCCN)C(N)=O [LV-17] (Ac-[dK][dK][dL][dL][d2Nal][dK][dL][dK][d2Nal][dK][dK]-NH2)	4 (≈ 2.56 µM)	8 (≈ 5.12 µM)	8 (≈ 5.12 µM)	8 (≈ 5.12 µM)	16 (≈ 10.2 µM)	2 (≈ 1.28 µM)	4 (≈ 2.56 µM)	1 (≈ 0.64 µM)	4 (≈ 2.56 µM)	2 (≈ 1.28 µM)	1 (≈ 0.64 µM)	4 (≈ 2.56 µM)	8 (≈ 5.12 µM)	4 (≈ 2.56 µM)	4 (≈ 2.56 µM)	4 (≈ 2.56 µM)	8 (≈ 5.12 µM)	>1000	0	2	Number of mice that died on each day after infection: day 1 ([16]; 0.2 mg/kg via tail vein): 1 Mouse; Number of mice that died on each day after infection: day 2 ([16]; 0.2 mg/kg via tail vein): 2 Mouse; Number of mice that died on each day after infection: day 3 ([16]; 0.2 mg/kg via tail vein): 1 Mouse; Number of mice that died on each day after infection: day 4 ([16]; 0.2 mg/kg via tail vein): 1 Mouse; Number of mice that died on each day after infection: day 5 ([16]; 0.2 mg/kg via tail vein): 1 Mouse; Average survival times (Days) ([16]; 0.2 mg/kg via tail vein): 7.3** Days; Number of mice that died on each day after infection: day 3 ([16]; 1 mg/kg via tail vein): 0 Mouse; Number of mice that died on each day after infection: day 4 ([16]; 1 mg/kg via tail vein): 1 Mouse; Number of mice that died on each day after infection: day 5 ([16]; 1 mg/kg via tail vein): 0 Mouse; Average survival times (Days) ([16]; 1 mg/kg via tail vein): 10.6**** Days; Number of mice that died on each day after infection: day 1 ([16]; 5 mg/kg via tail vein): 0 Mouse; Number of mice that died on each day after infection: day 2 ([16]; 5 mg/kg via tail vein): 2 Mouse; Number of mice that died on each day after infection: day 3 ([16]; 5 mg/kg via tail vein): 1 Mouse; Number of mice that died on each day after infection: day 4 ([16]; 5 mg/kg via tail vein): 1 Mouse; Number of mice that died on each day after infection: day 5 ([16]; 5 mg/kg via tail vein): 0 Mouse; Average survival times (Days) ([16]; 5 mg/kg via tail vein): 9.5*** Days; survival time of mice infected with Pseudomonas aeruginosa [16]: superior to those of the Levofloxacin group; remaining at 12 h, 0.91 mg/mL [17]: 97.2%
CC(=O)N[C@H](CCCNC(=N)N)C(=O)N[C@H](CCCCN)C(=O)N[C@H](CC(C)C)C(=O)N[C@H](CC(C)C)C(=O)N[C@H](Cc1ccc2ccccc2c1)C(=O)N[C@H](CCCCN)C(=O)N[C@H](CC(C)C)C(=O)N[C@H](CCCCN)C(=O)N[C@H](Cc1ccc2ccccc2c1)C(=O)N[C@H](CCCCN)C(=O)N[C@H](CCCNC(=N)N)C(N)=O [LV-18] (Ac-[dR][dK][dL][dL][d2Nal][dK][dL][dK][d2Nal][dK][dR]-NH2)	4 (≈ 2.47 µM)	4 (≈ 2.47 µM)	4 (≈ 2.47 µM)	4 (≈ 2.47 µM)	8 (≈ 4.94 µM)	2 (≈ 1.24 µM)	2 (≈ 1.24 µM)	1 (≈ 0.618 µM)	4 (≈ 2.47 µM)	4 (≈ 2.47 µM)	2 (≈ 1.24 µM)	8 (≈ 4.94 µM)	4 (≈ 2.47 µM)	2 (≈ 1.24 µM)	2 (≈ 1.24 µM)	4 (≈ 2.47 µM)	8 (≈ 4.94 µM)	>1000	0	1	Number of mice that died on each day after infection: day 1 ([16]; 0.2 mg/kg via tail vein): 2 Mouse; Number of mice that died on each day after infection: day 2 ([16]; 0.2 mg/kg via tail vein): 1 Mouse; Number of mice that died on each day after infection: day 3 ([16]; 0.2 mg/kg via tail vein): 1 Mouse; Number of mice that died on each day after infection: day 4 ([16]; 0.2 mg/kg via tail vein): 1 Mouse; Number of mice that died on each day after infection: day 5 ([16]; 0.2 mg/kg via tail vein): 1 Mouse; Average survival times (Days) ([16]; 0.2 mg/kg via tail vein): 7.2** Days; Number of mice that died on each day after infection: day 3 ([16]; 1 mg/kg via tail vein): 0 Mouse; Number of mice that died on each day after infection: day 4 ([16]; 1 mg/kg via tail vein): 1 Mouse; Number of mice that died on each day after infection: day 5 ([16]; 1 mg/kg via tail vein): 1 Mouse; Average survival times (Days) ([16]; 1 mg/kg via tail vein): 10.9**** Days; Number of mice that died on each day after infection: day 1 ([16]; 5 mg/kg via tail vein): 0 Mouse; Number of mice that died on each day after infection: day 2 ([16]; 5 mg/kg via tail vein): 2 Mouse; Number of mice that died on each day after infection: day 3 ([16]; 5 mg/kg via tail vein): 1 Mouse; Number of mice that died on each day after infection: day 4 ([16]; 5 mg/kg via tail vein): 0 Mouse; Number of mice that died on each day after infection: day 5 ([16]; 5 mg/kg via tail vein): 0 Mouse; Average survival times (Days) ([16]; 5 mg/kg via tail vein): 10.5**** Days; survival time of mice infected with Pseudomonas aeruginosa [16]: superior to those of the Levofloxacin group; remaining at 12 h, 0.91 mg/mL [17]: 97.6%
